ChEMBL document CHEMBL4011620, “Design and Discovery of N-(2-Methyl-5'-morpholino-6'-((tetrahydro-2H-pyran-4-yl)oxy)-[3,3'-bipyridin]-5-yl)-3-(trifluoromethyl)benzamide (RAF709): A Potent, Selective, and Efficacious RAF Inhibitor Targeting RAS Mutant Cancers” (J Med Chem, 2017)
Converted amounts (≈) assume the structure as drawn.

How the values were obtained:
Calu-6 = assay: Antiproliferative activity against human Calu6 cells harboring KRAS Q61K mutant assessed as reduction cell viability after 72 hrs by CellTiter-Glo assay; format: functional, cell-based; details: Calu-6, 72 h
[1] = Apparent permeability across basolateral to apical side in human Caco2 cells at pH 7.4 by LC/MS/MS analysis; details: Caco-2, pH 7.4
[2] = molecular target: T1, RAF proto-oncogene serine/threonine-protein kinase (Homo sapiens, UniProt P04049); assay: Inhibition CRAF in human Calu6 cells assessed as decrease in MEK phosphorylation after 2 hrs by HTRF method; format: cell-based
[3] = Solubility of compound at pH 6.8 by shake-flask assay; details: buffer
[4] = molecular target: RAF proto-oncogene serine/threonine-protein kinase (Homo sapiens, UniProt P04049, Y340E/Y341E); assay: Inhibition of CRAF Y340E/Y341E mutant (unknown origin) using human MEK1 K97R mutant as substrate pretreated for 30 mins followed by substrate addition measured after 40 mins by alphascreen assay
[5] = Apparent permeability across apical to basolateral side in human Caco2 cells at pH 7.4 by LC/MS/MS analysis; details: Caco-2, pH 7.4
[6] = Intrinsic clearance in rat liver microsomes; format: ADME, microsome; details: read-out: CLH
[7] = Intrinsic clearance in human liver microsomes; format: ADME, microsome; details: read-out: CLH
[8] = molecular target: T1, RAF proto-oncogene serine/threonine-protein kinase; assay: Activation of CRAF in human Calu6 cells assessed as increase in MEK phosphorylation at 3 uM after 2 hrs by FRET assay; format: cell-based
[9] = Oral bioavailability in Sprague-Dawley rat at 3 mg/kg; format: ADME, organism-based; details: in vivo
[10] = Clearance in Sprague-Dawley rat 1 mg/kg, iv or 3 mg/kg, po; format: ADME, organism-based; details: in vivo
[11] = test system: Serine/threonine-protein kinase B-raf (Homo sapiens), P15056 [V600E]; assay: Binding affinity to human BRAF V600E mutant (429 to 741 residues) expressed in mammalian expression system at 1 uM by kinome scan assay relative to control
[12] = Cmax in Sprague-Dawley rat at 3 mg/kg, po; format: ADME, organism-based; design: dose 3 mg/kg, route oral; details: in vivo
[13] = molecular target: Serine/threonine-protein kinase B-raf (Homo sapiens, UniProt P15056); assay: Binding affinity to human BRAF (429 to 741 residues) expressed in mammalian expression system at 1 uM by kinome scan assay relative to control
[14] = molecular target: Platelet-derived growth factor receptor alpha (Homo sapiens) (UniProt P16234); assay: Binding affinity to human PDGFRalpha (330 to 640 residues) expressed in mammalian expression system at 1 uM by kinome scan assay relative to control
[15] = AUC in Sprague-Dawley rat at 3 mg/kg, po; format: ADME, organism-based; details: in vivo

T1 sequence (P04049 whole entry): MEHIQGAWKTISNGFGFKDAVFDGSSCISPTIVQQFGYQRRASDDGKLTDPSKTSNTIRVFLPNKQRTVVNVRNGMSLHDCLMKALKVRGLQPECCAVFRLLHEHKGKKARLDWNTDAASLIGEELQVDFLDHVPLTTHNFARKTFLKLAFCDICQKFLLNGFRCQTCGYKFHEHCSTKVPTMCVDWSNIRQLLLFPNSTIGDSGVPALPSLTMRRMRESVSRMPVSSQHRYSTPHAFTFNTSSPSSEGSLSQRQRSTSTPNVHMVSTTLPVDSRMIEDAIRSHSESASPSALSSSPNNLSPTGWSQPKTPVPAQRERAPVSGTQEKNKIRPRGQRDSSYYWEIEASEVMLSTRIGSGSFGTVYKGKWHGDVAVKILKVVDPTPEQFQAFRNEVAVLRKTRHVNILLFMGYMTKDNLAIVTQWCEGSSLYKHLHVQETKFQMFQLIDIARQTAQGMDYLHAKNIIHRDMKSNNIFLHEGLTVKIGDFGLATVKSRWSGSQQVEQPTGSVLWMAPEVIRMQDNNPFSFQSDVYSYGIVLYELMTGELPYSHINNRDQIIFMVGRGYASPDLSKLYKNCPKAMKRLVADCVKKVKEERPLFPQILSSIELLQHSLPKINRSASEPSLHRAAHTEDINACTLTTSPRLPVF
Sequence of RAF proto-oncogene serine/threonine-protein kinase (Homo sapiens, UniProt P04049, Y340E/Y341E) (P04049 whole entry Y340E/Y341E): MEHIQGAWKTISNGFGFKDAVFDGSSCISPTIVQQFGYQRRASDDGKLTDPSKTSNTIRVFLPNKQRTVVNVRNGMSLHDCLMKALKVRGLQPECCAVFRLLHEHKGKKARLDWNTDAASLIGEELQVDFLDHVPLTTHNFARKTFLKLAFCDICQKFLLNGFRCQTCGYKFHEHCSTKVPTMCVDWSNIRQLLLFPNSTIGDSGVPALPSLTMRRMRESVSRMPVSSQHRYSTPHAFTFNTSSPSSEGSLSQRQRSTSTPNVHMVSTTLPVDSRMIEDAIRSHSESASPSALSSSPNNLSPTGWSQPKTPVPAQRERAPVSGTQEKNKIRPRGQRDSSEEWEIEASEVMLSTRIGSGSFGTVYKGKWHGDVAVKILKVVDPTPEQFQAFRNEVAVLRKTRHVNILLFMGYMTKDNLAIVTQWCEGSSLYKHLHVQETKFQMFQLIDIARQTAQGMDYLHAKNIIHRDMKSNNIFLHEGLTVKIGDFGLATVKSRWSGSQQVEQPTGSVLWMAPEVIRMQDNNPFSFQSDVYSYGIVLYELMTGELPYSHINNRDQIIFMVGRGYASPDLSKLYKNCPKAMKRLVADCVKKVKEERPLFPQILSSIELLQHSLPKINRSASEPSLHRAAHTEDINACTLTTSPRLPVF
Sequence of Serine/threonine-protein kinase B-raf (P15056 whole entry, the tested form may be a part): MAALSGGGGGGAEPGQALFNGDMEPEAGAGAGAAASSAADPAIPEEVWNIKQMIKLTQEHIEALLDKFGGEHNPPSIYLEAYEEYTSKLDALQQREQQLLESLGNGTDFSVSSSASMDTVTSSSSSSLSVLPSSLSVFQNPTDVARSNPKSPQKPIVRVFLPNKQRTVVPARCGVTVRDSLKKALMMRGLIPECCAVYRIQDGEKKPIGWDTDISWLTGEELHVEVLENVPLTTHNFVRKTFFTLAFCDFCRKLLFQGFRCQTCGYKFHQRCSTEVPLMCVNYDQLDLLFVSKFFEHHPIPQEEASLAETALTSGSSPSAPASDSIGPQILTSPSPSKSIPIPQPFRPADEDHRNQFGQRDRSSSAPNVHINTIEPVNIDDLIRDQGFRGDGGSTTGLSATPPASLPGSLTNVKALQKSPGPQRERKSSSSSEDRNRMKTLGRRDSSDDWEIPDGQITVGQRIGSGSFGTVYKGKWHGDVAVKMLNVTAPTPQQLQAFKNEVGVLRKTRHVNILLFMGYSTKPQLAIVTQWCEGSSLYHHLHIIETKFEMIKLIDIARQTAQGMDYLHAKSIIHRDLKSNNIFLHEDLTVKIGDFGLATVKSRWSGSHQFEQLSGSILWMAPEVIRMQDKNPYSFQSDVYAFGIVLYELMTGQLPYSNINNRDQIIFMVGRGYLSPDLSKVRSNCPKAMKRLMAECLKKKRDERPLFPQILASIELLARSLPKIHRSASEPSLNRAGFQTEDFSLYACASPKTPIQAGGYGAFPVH
Sequence of Platelet-derived growth factor receptor alpha (Homo sapiens) (P16234 whole entry, the tested form may be a part): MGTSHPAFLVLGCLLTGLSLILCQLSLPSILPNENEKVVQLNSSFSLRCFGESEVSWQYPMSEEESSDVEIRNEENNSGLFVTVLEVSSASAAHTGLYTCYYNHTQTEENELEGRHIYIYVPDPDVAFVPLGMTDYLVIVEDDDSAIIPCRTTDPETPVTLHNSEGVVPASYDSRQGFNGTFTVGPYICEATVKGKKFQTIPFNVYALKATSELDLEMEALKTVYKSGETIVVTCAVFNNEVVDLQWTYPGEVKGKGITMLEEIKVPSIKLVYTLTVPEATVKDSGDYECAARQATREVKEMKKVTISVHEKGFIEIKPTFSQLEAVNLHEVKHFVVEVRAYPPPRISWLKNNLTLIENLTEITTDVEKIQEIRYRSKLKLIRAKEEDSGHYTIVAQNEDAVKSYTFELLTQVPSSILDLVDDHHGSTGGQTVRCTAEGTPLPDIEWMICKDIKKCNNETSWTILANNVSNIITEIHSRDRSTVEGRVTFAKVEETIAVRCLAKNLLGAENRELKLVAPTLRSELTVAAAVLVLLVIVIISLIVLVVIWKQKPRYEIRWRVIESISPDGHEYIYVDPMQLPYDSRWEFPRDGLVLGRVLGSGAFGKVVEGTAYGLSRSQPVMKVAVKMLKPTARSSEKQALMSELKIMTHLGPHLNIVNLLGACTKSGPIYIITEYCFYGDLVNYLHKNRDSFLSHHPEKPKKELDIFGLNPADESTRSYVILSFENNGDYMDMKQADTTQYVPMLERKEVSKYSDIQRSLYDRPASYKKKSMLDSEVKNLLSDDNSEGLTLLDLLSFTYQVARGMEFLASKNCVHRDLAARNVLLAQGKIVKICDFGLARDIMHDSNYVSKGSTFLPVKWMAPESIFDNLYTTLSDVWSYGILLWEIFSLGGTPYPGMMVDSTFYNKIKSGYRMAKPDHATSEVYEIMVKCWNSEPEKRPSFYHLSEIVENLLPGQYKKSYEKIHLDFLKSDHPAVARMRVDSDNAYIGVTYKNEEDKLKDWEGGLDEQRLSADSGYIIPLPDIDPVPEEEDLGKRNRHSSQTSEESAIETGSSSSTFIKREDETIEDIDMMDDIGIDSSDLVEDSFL
Sequence of Serine/threonine-protein kinase B-raf (Homo sapiens), P15056 [V600E] (P15056 whole entry V600E, the tested form may be a part): as the sequence (P15056 whole entry, the tested form may be a part) above, with V600E counted along it

Row | EC50 (Calu-6) [nM] | Papp B→A [1] [×10⁻⁶ cm/s] | EC50 [2] [nM] | solubility thermodynamic [3] [µM] | Papp A→B [5] [×10⁻⁶ cm/s] | microsomal CLint [7] [µL/min/mg] | also measured | Structure (SMILES)
1 | 700 | 1.8 | 200 | < 2 | – | – | – | Cc1ccc(NC(=O)c2cccc(C(F)(F)F)c2)cc1-c1ccnc(N2CCOCC2)c1
2 | 3100 | – | 700 | – | – | – | IC50 [4]: 2 nM | Cc1ccc(C(=O)Nc2cccc(C(F)(F)F)c2)cc1-c1cc(N2CCOCC2)ncn1
3 | 2900 | – | – | < 2 | – | – | – | Cc1ncc(NC(=O)c2cccc(C(F)(F)F)c2)cc1-c1cnc(OC(C)C)c(N2CCOCC2)c1
4 | 6400 | 15 | 200 | 20 (≈ 8.61 µg/mL) | 15 | 170 | microsomal CLint [6]: 210 µL/min/mg; IC50 [4]: 0.5 nM | Cc1ccc(C(=O)Nc2cccc(C(C)(C)C)c2)cc1-c1cc(N2CCOCC2)ncn1
5 | 4100 | 16 | 200 | 190 (≈ 89.8 µg/mL) | 21 | 110 | – | Cc1ccc(NC(=O)c2cccc(C(F)(F)F)c2)cc1-c1cn(C)c(=O)c(N2CCOCC2)n1
6 | 2500 | 45 | – | 24 (≈ 12.1 µg/mL) | 5 | – | – | Cc1ncc(NC(=O)c2cccc(C(F)(F)F)c2)cc1-c1cnc(OCCO)c(N2CCOCC2)c1
7 | 5200 | 38 | – | 16 (≈ 7.08 µg/mL) | 19 | 43 | microsomal CLint [6]: 79 µL/min/mg | Cc1ccc(NC(=O)c2cccc(C(F)(F)F)c2)cc1-c1cc(N2CCOCC2)ncn1
8 | 1600 | 14 | – | < 2 | 16 | – | – | COc1ncc(-c2cc(NC(=O)c3cccc(C(F)(F)F)c3)cnc2C)cc1N1CCOCC1
9 | > 30000 | 39 | 3960 | 1040 (≈ 492 µg/mL) | 3 | < 7.7 | IC50 [4]: 1 nM | Cc1ncc(NC(=O)c2ccnc(C(F)(F)F)c2)cc1-c1cc(N2CCOCC2)c(=O)n(C)c1
10 | – | – | – | – | – | – | Activity [8]: Active | CCCS(=O)(=O)Nc1ccc(F)c(C(=O)c2c[nH]c3ncc(-c4ccc(Cl)cc4)cc23)c1F [VEMURAFENIB]
11 | 1800 | 43 | 460 | 20 (≈ 9.45 µg/mL) | 7 | < 7.7 | – | Cc1ncc(NC(=O)c2cccc(C(F)(F)F)c2)cc1-c1cc(N2CCOCC2)c(=O)n(C)c1
12 | 500 | 22 | – | 70 (≈ 33 µg/mL) | 20 | 51 | microsomal CLint [6]: 46 µL/min/mg; bioavailability [9]: 22%; clearance [10]: 53 mL/min/kg; Activity [11]: > 99%; Cmax [12]: 150 nM; Activity [13]: > 99%; Activity [14]: 89%; AUC [15]: 0.438 µM·h | Cc1ccc(NC(=O)c2cccc(C(F)(F)F)c2)cc1-c1cc(N2CCOCC2)c(=O)n(C)c1
